Data taken from US6355799B1, “Substituted benzene compounds, process for their preparation, and herbicidal and defoliant compositions containing them” (ISK Americas Incorporated, priority 1997, dated 2002).

Legend:
Assay type in all cases: in vivo
[1] = tested on: redroot pigweed (Amaranthus retroflexus, AMARE); experiment: Pre-emerge test, greenhouse herbicide activity screening; conditions: pre-emerge, 14 days after application
Method in brief: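 Rating: 0–100 visual injury, 14 DAA. Application: acetone, 187 l/ha, 15–1000 g ai/ha, flat-fan track sprayer with nozzle 40–45 cm above soil or canopy. Post-emerge runs used 0.25% v/v surfactant on 2–3 leaf plants.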

[2] = tested on: barnyardgrass (Echinochloa crus-galli, ECHCG); experiment: as above; conditions: pre-emerge, 14 days after application
Method in brief: (§1)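 Sandy loam pots; pre-emerge: sown 1 d pre-spray, surface-watered after, then bottom-watered. Post-emerge: sown 8–21 d before, 2–3 leaf stage, + 0.25% v/v NIS, bottom-watered. Acetone, 187 l/ha track spray, 15–1000 g ai/ha. 0–100 injury score, day 14.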

[3] = tested on: green foxtail (Setaria viridis, SETVI); experiment: as above; conditions: pre-emerge, 14 days after application
Method in brief: as §1

[4] = tested on: ivyleaf morningglory (Ipomoea hederacea, IPOHE); experiment: as above; conditions: pre-emerge, 14 days after application
Method in brief: as §1

[5] = tested on: johnsongrass (Sorghum halepense, SORHA); experiment: as above; conditions: pre-emerge, 14 days after application
Method in brief: as §1

[6] = tested on: lambsquarters (Chenopodium album, CHEAL); experiment: as above; conditions: pre-emerge, 14 days after application
Method in brief: as §1

[7] = tested on: large crabgrass (Digitaria sanguinalis, DIGSA); experiment: as above; conditions: pre-emerge, 14 days after application
Method in brief: as §1

[8] = tested on: sicklepod (Cassia obtusifolia, CASOB); experiment: as above; conditions: pre-emerge, 14 days after application
Method in brief: as §1

[9] = tested on: velvetleaf (Abutilon theophrasti, ABUTH); experiment: as above; conditions: pre-emerge, 14 days after application
Method in brief: as §1

[10] = tested on: field corn (Zea mays L., var. Dekalb 535, CORN); experiment: Pre-emerge test, crop safety; conditions: pre-emerge, 14 days after application; for phytotoxicity rating CORN (crop damage): scale 0-100; for phytotoxicity rating CORN: rating scale 0-100
Method in brief: (§2)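 Fourteen days after spraying, crop and weed injury was graded visually from 0, no effect, to 100, every plant dead. Test substances were dissolved in acetone and applied at 15–1000 g ai/ha with a flat-fan nozzle. Application was either pre-emergence, one day after sowing, or post-emergence at the 2–3 leaf stage.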

[11] = tested on: upland rice (Oryza sp., var. Tebonnet, RICE); experiment: Pre-emerge test, crop safety; conditions: pre-emerge, 14 days after application; for phytotoxicity rating RICE (crop damage): scale 0-100; for phytotoxicity rating RICE: rating scale 0-100
Method in brief: as §2

[12] = tested on: barnyardgrass (Echinochloa crus-galli, ECHCG); experiment: Post-emerge test, greenhouse herbicide activity screening; conditions: 14 days after application; for ECHCG phytotoxicity rating: post-emerge, rating scale 0-100; for Post-emerge Herbicidal Activity, phytotoxicity rating ECHCG: rating scale 0-100 (0 no damage, 100 complete death)
Method in brief: as §2

[13] = tested on: green foxtail (Setaria viridis, SETVI); experiment: as above; conditions: 14 days after application; for SETVI phytotoxicity rating: post-emerge, rating scale 0-100; for Post-emerge Herbicidal Activity, phytotoxicity rating SETVI: rating scale 0-100 (0 no damage, 100 complete death)
Method in brief: as §2

[14] = tested on: ivyleaf morningglory (Ipomoea hederacea, IPOHE); experiment: as above; conditions: 14 days after application; for IPOHE phytotoxicity rating: post-emerge, rating scale 0-100; for Post-emerge Herbicidal Activity, phytotoxicity rating IPOHE: rating scale 0-100 (0 no damage, 100 complete death)
Method in brief: as §2

[15] = tested on: johnsongrass (Sorghum halepense, SORHA); experiment: as above; conditions: 14 days after application; for SORHA phytotoxicity rating: post-emerge, rating scale 0-100; for Post-emerge Herbicidal Activity, phytotoxicity rating SORHA: rating scale 0-100 (0 no damage, 100 complete death)
Method in brief: as §2

[16] = tested on: lambsquarters (Chenopodium album, CHEAL); experiment: as above; conditions: 14 days after application; for CHEAL phytotoxicity rating: post-emerge, rating scale 0-100; for Post-emerge Herbicidal Activity, phytotoxicity rating CHEAL: rating scale 0-100 (0 no damage, 100 complete death)
Method in brief: as §2

[17] = tested on: large crabgrass (Digitaria sanguinalis, DIGSA); experiment: as above; conditions: 14 days after application; for DIGSA phytotoxicity rating: post-emerge, rating scale 0-100; for Post-emerge Herbicidal Activity, phytotoxicity rating DIGSA: rating scale 0-100 (0 no damage, 100 complete death)
Method in brief: as §2

[18] = tested on: redroot pigweed (Amaranthus retroflexus, AMARE); experiment: as above; conditions: 14 days after application; for AMARE phytotoxicity rating: post-emerge, rating scale 0-100; for Post-emerge Herbicidal Activity, phytotoxicity rating AMARE: rating scale 0-100 (0 no damage, 100 complete death)
Method in brief: as §2

[19] = tested on: sicklepod (Cassia obtusifolia, CASOB); experiment: as above; conditions: 14 days after application; for CASOB phytotoxicity rating: post-emerge, rating scale 0-100; for Post-emerge Herbicidal Activity, phytotoxicity rating CASOB: rating scale 0-100 (0 no damage, 100 complete death)
Method in brief: as §2

[20] = tested on: velvetleaf (Abutilon theophrasti, ABUTH); experiment: as above; conditions: 14 days after application; for ABUTH phytotoxicity rating: post-emerge, rating scale 0-100; for Post-emerge Herbicidal Activity, phytotoxicity rating ABUTH: rating scale 0-100 (0 no damage, 100 complete death)
Method in brief: as §2

[21] = tested on: field corn (Zea mays L., var. Dekalb 535, CORN); experiment: Post-emerge test, crop safety; conditions: 14 days after application; for CORN phytotoxicity rating (crop damage): post-emerge, rating scale 0-100; for Post-emerge phytotoxicity rating CORN (crop damage): rating scale 0-100 (0 no damage, 100 complete death)
Method in brief: as §1

[22] = tested on: upland rice (Oryza sp., var. Tebonnet, RICE); experiment: Post-emerge test, crop safety; conditions: 14 days after application; for RICE phytotoxicity rating (crop damage): post-emerge, rating scale 0-100; for Post-emerge phytotoxicity rating RICE (crop damage): rating scale 0-100 (0 no damage, 100 complete death)
Method in brief: as §1

[23] = 250 g ai/ha, rating scale 0-100

COc1c(Cl)cc(F)c(-n2c(=O)cc(C(F)(F)F)n(C)c2=O)c1NC(=O)c1ccc2ccccc2c1OC [2-153]
phytotoxicity rating AMARE ([1]; 63 g ai/ha, scale 0-100): 100 | phytotoxicity rating AMARE ([1]; 250 g ai/ha, scale 0-100): 100 | phytotoxicity rating ECHCG ([2]; 63 g ai/ha, scale 0-100): 0 | phytotoxicity rating ECHCG ([2]; 250 g ai/ha, scale 0-100): 0 | phytotoxicity rating SETVI ([3]; 63 g ai/ha, scale 0-100): 30 | phytotoxicity rating SETVI ([3]; 250 g ai/ha, scale 0-100): 90 | phytotoxicity rating IPOHE ([4]; 63 g ai/ha, scale 0-100): 0 | phytotoxicity rating IPOHE ([4]; 250 g ai/ha, scale 0-100): 0 | phytotoxicity rating SORHA ([5]; 63 g ai/ha, scale 0-100): 10 | phytotoxicity rating SORHA ([5]; 250 g ai/ha, scale 0-100): 0 | phytotoxicity rating CHEAL ([6]; 63 g ai/ha, scale 0-100): 70 | phytotoxicity rating CHEAL ([6]; 250 g ai/ha, scale 0-100): 90 | phytotoxicity rating DIGSA ([7]; 63 g ai/ha, scale 0-100): 0 | phytotoxicity rating DIGSA ([7]; 250 g ai/ha, scale 0-100): 40 | phytotoxicity rating CASOB ([8]; 63 g ai/ha, scale 0-100): 0 | phytotoxicity rating CASOB ([8]; 250 g ai/ha, scale 0-100): 0 | phytotoxicity rating ABUTH ([9]; 63 g ai/ha, scale 0-100): 20 | phytotoxicity rating ABUTH ([9]; 250 g ai/ha, scale 0-100): 50 | phytotoxicity rating CORN (crop damage) ([10]; 63 g ai/ha): 0 | phytotoxicity rating CORN (crop damage) ([10]; 250 g ai/ha): 0 | phytotoxicity rating RICE (crop damage) ([11]; 63 g ai/ha): 0 | phytotoxicity rating RICE (crop damage) ([11]; 250 g ai/ha): 20 | ECHCG phytotoxicity rating ([12]; 63 g ai/ha): 10 | ECHCG phytotoxicity rating ([12]; 250 g ai/ha): 20 | SETVI phytotoxicity rating ([13]; 63 g ai/ha): 20 | SETVI phytotoxicity rating ([13]; 250 g ai/ha): 30 | IPOHE phytotoxicity rating ([14]; 63 g ai/ha): 100 | IPOHE phytotoxicity rating ([14]; 250 g ai/ha): 95 | SORHA phytotoxicity rating ([15]; 63 g ai/ha): 0 | SORHA phytotoxicity rating ([15]; 250 g ai/ha): 20 | CHEAL phytotoxicity rating ([16]; 63 g ai/ha): 80 | CHEAL phytotoxicity rating ([16]; 250 g ai/ha): 95 | DIGSA phytotoxicity rating ([17]; 63 g ai/ha): 0 | DIGSA phytotoxicity rating ([17]; 250 g ai/ha): 10 | AMARE phytotoxicity rating ([18]; 63 g ai/ha): 60 | AMARE phytotoxicity rating ([18]; 250 g ai/ha): 90 | CASOB phytotoxicity rating ([19]; 63 g ai/ha): 0 | CASOB phytotoxicity rating ([19]; 250 g ai/ha): 30 | ABUTH phytotoxicity rating ([20]; 63 g ai/ha): 95 | ABUTH phytotoxicity rating ([20]; 250 g ai/ha): 100 | CORN phytotoxicity rating (crop damage) ([21]; 63 g ai/ha): 5 | CORN phytotoxicity rating (crop damage) ([21]; 250 g ai/ha): 5 | RICE phytotoxicity rating (crop damage) ([22]; 63 g ai/ha): 0 | RICE phytotoxicity rating (crop damage) ([22]; 250 g ai/ha): 10

CCOC(=O)C(Cl)(CC(=O)OC)Cc1c(OC)c(Cl)cc(F)c1-n1c(=O)cc(C(F)(F)F)n(C)c1=O (stereo not shown) [14-50]
phytotoxicity rating AMARE ([1]; 63 g ai/ha, rating scale 0-100): 100 | phytotoxicity rating AMARE [1, 23]: 100 | phytotoxicity rating ECHCG ([2]; 63 g ai/ha, rating scale 0-100): 0 | phytotoxicity rating ECHCG [2, 23]: 30 | phytotoxicity rating SETVI ([3]; 63 g ai/ha, rating scale 0-100): 0 | phytotoxicity rating SETVI [3, 23]: 50 | phytotoxicity rating IPOHE ([4]; 63 g ai/ha, rating scale 0-100): 10 | phytotoxicity rating IPOHE [4, 23]: 70 | phytotoxicity rating SORHA ([5]; 63 g ai/ha, rating scale 0-100): 50 | phytotoxicity rating SORHA [5, 23]: 95 | phytotoxicity rating CHEAL ([6]; 63 g ai/ha, rating scale 0-100): 100 | phytotoxicity rating CHEAL [6, 23]: 100 | phytotoxicity rating DIGSA ([7]; 63 g ai/ha, rating scale 0-100): 0 | phytotoxicity rating DIGSA [7, 23]: 40 | phytotoxicity rating CASOB ([8]; 63 g ai/ha, rating scale 0-100): 0 | phytotoxicity rating CASOB [8, 23]: 30 | phytotoxicity rating ABUTH ([9]; 63 g ai/ha, rating scale 0-100): 0 | phytotoxicity rating ABUTH [9, 23]: 50 | phytotoxicity rating CORN ([10]; 63 g ai/ha): 10 | phytotoxicity rating CORN ([10]; 250 g ai/ha): 90 | phytotoxicity rating RICE ([11]; 63 g ai/ha): 0 | phytotoxicity rating RICE ([11]; 250 g ai/ha): 0 | Post-emerge Herbicidal Activity, phytotoxicity rating ECHCG ([12]; Rate 63 g ai/ha): 0 | Post-emerge Herbicidal Activity, phytotoxicity rating ECHCG ([12]; Rate 250 g ai/ha): 0 | Post-emerge Herbicidal Activity, phytotoxicity rating SETVI ([13]; Rate 63 g ai/ha): 0 | Post-emerge Herbicidal Activity, phytotoxicity rating SETVI ([13]; Rate 250 g ai/ha): 0 | Post-emerge Herbicidal Activity, phytotoxicity rating IPOHE ([14]; Rate 63 g ai/ha): 0 | Post-emerge Herbicidal Activity, phytotoxicity rating IPOHE ([14]; Rate 250 g ai/ha): 0 | Post-emerge Herbicidal Activity, phytotoxicity rating SORHA ([15]; Rate 63 g ai/ha): 0 | Post-emerge Herbicidal Activity, phytotoxicity rating SORHA ([15]; Rate 250 g ai/ha): 0 | Post-emerge Herbicidal Activity, phytotoxicity rating CHEAL ([16]; Rate 63 g ai/ha): 50 | Post-emerge Herbicidal Activity, phytotoxicity rating CHEAL ([16]; Rate 250 g ai/ha): 100 | Post-emerge Herbicidal Activity, phytotoxicity rating DIGSA ([17]; Rate 63 g ai/ha): 0 | Post-emerge Herbicidal Activity, phytotoxicity rating DIGSA ([17]; Rate 250 g ai/ha): 50 | Post-emerge Herbicidal Activity, phytotoxicity rating AMARE ([18]; Rate 63 g ai/ha): 100 | Post-emerge Herbicidal Activity, phytotoxicity rating AMARE ([18]; Rate 250 g ai/ha): 100 | Post-emerge Herbicidal Activity, phytotoxicity rating CASOB ([19]; Rate 63 g ai/ha): 90 | Post-emerge Herbicidal Activity, phytotoxicity rating CASOB ([19]; Rate 250 g ai/ha): 100 | Post-emerge Herbicidal Activity, phytotoxicity rating ABUTH ([20]; Rate 63 g ai/ha): 30 | Post-emerge Herbicidal Activity, phytotoxicity rating ABUTH ([20]; Rate 250 g ai/ha): 50 | Post-emerge phytotoxicity rating CORN (crop damage) ([21]; Rate 63 g ai/ha): 10 | Post-emerge phytotoxicity rating CORN (crop damage) ([21]; Rate 250 g ai/ha): 30 | Post-emerge phytotoxicity rating RICE (crop damage) ([22]; Rate 63 g ai/ha): 30 | Post-emerge phytotoxicity rating RICE (crop damage) ([22]; Rate 250 g ai/ha): 50
